Literature values, collected in US20250325495A1, “SILK NANOPARTICLE SYNTHESIS: TUNING SIZE, DISPERSITY, AND SURFACE CHEMISTRY FOR DRUG DELIVERY” (Trustees of Tufts College, priority 2022, published 2025).

System: GBM cell lines
Settings: compared with temozolomide

## COc1cccc2c1C(=O)c1c(O)c3c(c(O)c1C2=O)C[C@@](O)(C(=O)CO)C[C@@H]3O[C@H]1C[C@H](N)[C@H](O)[C@H](C)O1 [doxorubicin]
  cytotoxic effects: superior cytotoxic effects
